Consider one compound from patent publication US20130149362A1, “TREATMENT PRODUCT AND METHOD” (priority 2007, published 2013).

A short description of this series: penetration of retinal into the skin (topical application). The note with it: retinal by itself.

With `CC1=C(/C=C/C(C)=C/C=C/C(C)=C/C=O)C(C)(C)CCC1` [Retinal], the penetration rate entry is recorded as “about 2%”.
